Here are results for 23 compounds from patent US20260356834A1, “ANTICONVULSIVE COMPOUNDS AND USES THEREOF” (Jazz Pharmaceuticals Research UK Limite, priority 2023, published 2026).

Experiment [1] relates to C57BL/6J mice. The experiment in a line: mouse maximal electroshock seizure threshold model using minimal sample sizes (mini-MEST). The following applies: 30 min post dose.
Procedure: An increase in seizure threshold is indicative of an anticonvulsive effect.
The ability of a test compound to alter the stimulus intensity, expressed as current (mA), required to induce the presence of tonic hind limb extensor convulsions, is assessed in the MEST.
In the mini-MEST test, a lower n number is used.
Male C57BL/6J mice were housed in groups of 6. Mice were kept under standard conditions (12 hour light cycle; light intensity of 25-75 lux) and fed a diet of certified rodent CR 14% protein rodent diet (LabDiet® 4CR4). Mice were 8-9 weeks old at the start of the study.
Naïve mice were acclimatised to the procedure room in their home cages for up to 7 days, with food and water available ad libitum.
All animals were weighed at the beginning of the study and randomly assigned to treatment groups based on a mean distribution of body weight across groups.
The first animal within a treatment group was given a shock at the expected or estimated CC50 current. For subsequent animals, the current was lowered or raised depending on the convulsions outcome from the preceding animal in log scale intervals.
Data generated from each treatment group were used to calculate the CC50±SEM values for the treatment group.
Vehicle: (5% ethanol, 10% Solutol® (Kolliphor® HS 15), 85% saline). 1 mL of ethanol, 2 mL of Solutol™ were warmed to 60 °C, in 17 mL of 0.9% saline.
Test compounds: 5-50 mg/kg in a 1:2:17 ethanol:Solutol®:saline formulation (as used for vehicle).
The subject of experiment [2] is C57BL/6J mice. The experiment in a line: mouse maximal electroshock seizure threshold model (MEST). The class given is in vivo. The conditions noted are these: for CC50 +/− SEM: HPMC vehicle; for Change from vehicle (CC50): vs HPMC vehicle. How it is done:
Vehicle=1:2:17 ethanol:Solutol® (Kolliphor® HS 15):saline: 1 mL of ethanol and 2 mL of solutol were warmed to 60 °C and 17 mL of 0.9% saline was added slowly. […]
Vehicle=0.5% HPMC and 0.1% Tween 80:0.5% HPMC and 0.1% Tween 80 in water.

The next experiment relates to RjOrl: Swiss mice. The experiment in a line: mouse 6 Hz (44 mA) model of partial seizures. In kind it is in vivo. The following applies: for Mean Forelimb Clonus +/− SEM: score 0-2; for Change from vehicle (forelimb clonus): vs vehicle (HPMC). An excerpt:
The 6 Hz (44 mA) model of partial seizures, which detects anticonvulsant activity, follows that described by Brown et al. 1953.
[…] A decrease in forelimb clonus score is indicative of protection from seizure and an anticonvulsive effect.
When conducted at a 44 mA stimulus intensity in mice, the 6 Hz test can differentiate compounds with potential for the treatment of focal-onset seizures that are often resistant to current anti-epileptic drugs.
Male RjOrl: Swiss mice (Janvier Labs, 53940 Le Genest-Saint-Isle, France), 5 weeks old, weighing 27-38 g at the beginning of the experiment. Animals were acclimatized to the Test Facility for at least 5 days after delivery and randomly housed in groups of 5 to 8 in macrolon cages on wood litter with free access to food and water.
The animal house was maintained under artificial lighting (12 hours) between 7:00 and 19:00 in a controlled ambient temperature of 22±2 °C and relative humidity between 30-70%.
Before transcorneal stimulation, a drop of tetracaine solution (1%) was applied on each eye of the mouse for local anesthesia. Between 1-10 minutes later and at the designated pre-treatment (see below), the mice were administered a rectangular current (44 mA, rectangular pulse: 0.2 ms pulse width, 3 s duration, (6 Hz) via corneal electrodes connected to a constant current shock generator (Ugo Basile: type 7801).
The results for the number of seizures as reflected by forelimb clonus were recorded immediately after current administration. Forelimb clonus was scored as absent (0=no forelimb clonus), mild (1=clonus with one forelimb) and strong (2=clonus with both forelimbs). The experimenters were blinded to the treatment. […]
The administration volume was 10 mL/kg.
Due to the number of animals tested, the experiment was divided in 2 sub-experiments on 2 consecutive days with equivalent numbers of mice per group and per sub-experiment.
Data were discrete values so considered to be non-normally distributed based on validation data, therefore non-parametric tests were utilized. Quantitative data (scores) with the test substance were analyzed by comparing test compound-treated groups with the 1:2:17 vehicle control using Kruskal-Wallis test with Dunn's multiple comparisons test when the Kruskal-Wallis test was significant. Quantitative data with the reference substance were analyzed using Mann-Whitney U test as compared to saline vehicle.

In experiment [3] the test system is C57BL/6J mice. The following applies: known convulsive agent; cited from earlier work.
For experiment [4], the system named is C57BL/6J mice. The conditions noted are these: known convulsive agent; cited from earlier work. The source holds these as a separate data set.

Read-outs that look alike come from different tables or passages of the source. Marks after values point to notes of the source that are not given here.

As for `CCCc1cc(O)c(-c2cccn3ccnc23)c(O)c1` [Compound 1, 2-(imidazo[1,2-a]pyridin-8-yl)-5-propylbenzene-1,3-diol], in the experiment on C57BL/6J mice [1] (30 mg/kg i.p.), the “CC50 +/− SEM” value was 92.9 ± 1.1 mA and the “Change from vehicle (CC50)” value was found to be 200%.
On the same counts, the results for `CCCc1cc(O)c(-c2c(C)ccn3cc(C)nc23)c(O)c1` [Compound 3, 2-(2,7-Dimethylimidazo[1,2-a]pyridin-8-yl)-5-propylbenzene-1,3-diol] are 35.3 ± 1.1 mA and 32%.
On the same counts, the results for `CCCc1cc(O)c(-c2c(C(F)(F)F)ccn3ccnc23)c(O)c1` [Compound 5, 2-(7-trifluoromethylimidazo[1,2-a]pyridin-8-yl)-5-propylbenzene-1,3-diol] are under 33.0 mA and under 12%.
Consider `CCCc1cc(O)c(-c2c(Cl)ccn3ccnc23)c(O)c1` [Compound 6, 2-(7-Chloroimidazo[1,2-a]pyridin-8-yl)-5-propylbenzene-1,3-diol], for which, in the experiment on C57BL/6J mice [1] (30 mg/kg i.p.), the “CC50 +/− SEM” value stood at 49.9 ± 1.9 mA and the “Change from vehicle (CC50)” value is listed as 70%.
As for `CCCc1cc(O)c(-c2c(C)c(C)cn3ccnc23)c(O)c1` [Compound 7, 2-(6,7-Dimethylimidazo[1,2-a]pyridin-8-yl)-5-propylbenzene-1,3-diol], in the experiment on C57BL/6J mice [1] (30 mg/kg i.p.), the “CC50 +/− SEM” value is on record as 53.5 ± 1.1 mA and the “Change from vehicle (CC50)” value is given as 100%.
On the same counts, the results for `CCCc1cc(O)c(-c2c(F)ccn3ccnc23)c(O)c1` [Compound 8, 2-(7-Fluoroimidazo[1,2-a]pyridin-8-yl)-5-propylbenzene-1,3-diol] are 65.8 ± 1.9 mA and 145%.
The matching figures for `CCCc1cc(O)c(-c2c(C)ccn3c(C)cnc23)c(O)c1` [Compound 9, 2-(3,7-Dimethylimidazo[1,2-a]pyridin-8-yl)-5-propylbenzene-1,3-diol]: 58.6 ± 1.6 mA and 152%.
The matching figures for `CCCc1cc(O)c(-c2c(C)ccn3c(Cl)cnc23)c(O)c1` [Compound 10, 2-(3-Chloro-7-methylimidazo[1,2-a]pyridin-8-yl)-5-propylbenzene-1,3-diol]: under 33.0 ± 0.0 mA and under 29%.
For `CCCc1cc(O)c(-c2c(C)c(F)cn3ccnc23)c(O)c1` [Compound 11, 2-(6-Fluoro-7-methylimidazo[1,2-a]pyridin-8-yl)-5-propylbenzene-1,3-diol], the “CC50 +/− SEM” value in the experiment with C57BL/6J mice [2] (5 mg/kg p.o., 15 min) is listed as 25.8 ± 1.9 mA; with C57BL/6J mice [2] (25 mg/kg p.o., 15 min), 37.5 ± 2.2 mA; in the experiment with C57BL/6J mice [2] (50 mg/kg p.o., 30 min), 100.8 ± 3.9 mA; with C57BL/6J mice [2] (100 mg/kg p.o., 30 min), 250.0 ± 3.7 mA. The “Change from vehicle (CC50)” value with C57BL/6J mice [2] (5 mg/kg p.o., 15 min) is recorded as −3%; in the experiment on C57BL/6J mice [2] (25 mg/kg p.o., 15 min), 42%***; with C57BL/6J mice [2] (50 mg/kg p.o., 30 min), 281%***; in the experiment on C57BL/6J mice [2] (100 mg/kg p.o., 30 min), 843%***. Further, the “Mean Forelimb Clonus +/− SEM” value in the experiment on RjOrl: Swiss mice (25 mg/kg p.o., 15 min) worked out at 0.85 ± 0.13; in the experiment with RjOrl: Swiss mice (50 mg/kg p.o., 30 min) it was 0.55 ± 0.11; in the experiment on RjOrl: Swiss mice (100 mg/kg p.o., 30 min), 0.80 ± 0.14; in the experiment with RjOrl: Swiss mice (200 mg/kg p.o., 60 min) it was 0.75 ± 0.12. The “Change from vehicle (forelimb clonus)” value with RjOrl: Swiss mice (25 mg/kg p.o., 15 min) is −15%; in the experiment on RjOrl: Swiss mice (50 mg/kg p.o., 30 min), −45%; in the experiment with RjOrl: Swiss mice (100 mg/kg p.o., 30 min) it was −20%; in the experiment with RjOrl: Swiss mice (200 mg/kg p.o., 60 min), −25%.
Turning to `CCCc1cc(O)c(-c2c(C)ccn3cc(Cl)nc23)c(O)c1` [Compound 12, 2-(2-Chloro-7-methylimidazo[1,2-a]pyridin-8-yl)-5-propylbenzene-1,3-diol], in the experiment on C57BL/6J mice [1] (30 mg/kg i.p.), the “CC50 +/− SEM” value was found to be 57.3 ± 1.9 mA and the “Change from vehicle (CC50)” value was determined as 145%.
With `CCCCCc1cc(O)c(-c2c(C)ccn3ccnc23)c(O)c1` [Compound 13, 2-(7-Methylimidazo[1,2-a]pyridin-8-yl)-5-pentylbenzene-1,3-diol], in the experiment with C57BL/6J mice [1] (30 mg/kg i.p.), the “CC50 +/− SEM” value turned out to be 92.9 ± 1.1 mA and the “Change from vehicle (CC50)” value came out at 263%.
On the same counts, the results for `Cc1ccn2ccnc2c1-c1c(O)cccc1O` [Compound 14, 2-(7-Methylimidazo[1,2-a]pyridin-8-yl)benzene-1,3-diol] are under 33.0 mA and under 52%.
In the case of `CCCc1cc(O)c(-c2c(C)ccn3cc(C(F)(F)F)nc23)c(O)c1` [Compound 15, 2-(2-Trifluoromethyl-7-methylimidazo[1,2-a]pyridin-8-yl)-5-propylbenzene-1,3-diol], in the experiment with C57BL/6J mice [1] (30 mg/kg i.p.), the “CC50 +/− SEM” value is reported as 35.3 ± 1.1 mA and the “Change from vehicle (CC50)” value is 62%.
For `CCCc1cc(O)c(-c2c(C)c(C(F)(F)F)cn3ccnc23)c(O)c1` [Compound 16, 2-(6-Trifluoromethyl-7-methylimidazo[1,2-a]pyridin-8-yl)-5-propylbenzene-1,3-diol], in the experiment on C57BL/6J mice [1] (30 mg/kg i.p.), the “CC50 +/− SEM” value is listed as under 33.0 mA and the “Change from vehicle (CC50)” value was under 35%.
On the same counts, the results for `CCCCCc1cc(O)c(-c2c(C)c(Cl)cn3ccnc23)c(O)c1` [Compound 17, 2-(6-Chloro-7-methylimidazo[1,2-a]pyridin-8-yl)-5-pentylbenzene-1,3-diol] are 80.9 ± 10.8 mA and 231%.
With `CCCc1cc(O)c(-c2c(C3CC3)ccn3ccnc23)c(O)c1` [Compound 18, 2-(7-Cyclopropylimidazo[1,2-a]pyridin-8-yl)-5-propylbenzene-1,3-diol], the “CC50 +/− SEM” value is recorded as 80.9 ± 1.1 mA in the experiment with C57BL/6J mice [1] (30 mg/kg i.p.) and 49.9 ± 1.9 mA in the experiment with C57BL/6J mice [1] (50 mg/kg p.o.). The “Change from vehicle (CC50)” value is on record as 216% in the experiment with C57BL/6J mice [1] (30 mg/kg i.p.) and 86% with C57BL/6J mice [1] (50 mg/kg p.o.).
In the case of `Cc1c(Cl)cn2ccnc2c1-c1c(O)cc(Cl)cc1O` [Compound 19, 5-Chloro-2-(6-chloro-7-methylimidazo[1,2-a]pyridin-8-yl)benzene-1,3-diol], in the experiment with C57BL/6J mice [1] (50 mg/kg p.o.), the “CC50 +/− SEM” value is on record as 57.3 ± 1.9 mA and the “Change from vehicle (CC50)” value is reported as 86%.
In the case of `CCC(C)(C)c1cc(O)c(-c2c(C)c(Cl)cn3ccnc23)c(O)c1` [Compound 20, 2-(6-Chloro-7-methylimidazo[1,2-a]pyridin-8-yl)-5-(tert-pentyl)benzene-1,3-diol], in the experiment with C57BL/6J mice [1] (30 mg/kg i.p.), the “CC50 +/− SEM” value is 40.6 ± 1.1 mA and the “Change from vehicle (CC50)” value is recorded as 59%.
Consider `CCC(C)(C)c1cc(O)c(-c2c(C)ccn3ccnc23)c(O)c1` [Compound 21, 2-(7-Methylimidazo[1,2-a]pyridin-8-yl)-5-(tert-pentyl)benzene-1,3-diol], for which, in the experiment on C57BL/6J mice [1] (30 mg/kg i.p.), the “CC50 +/− SEM” value is under 33.0 mA.
`Cc1ccn2ccnc2c1-c1c(O)cc(C2CCCC2)cc1O` [Compound 22, 5-Cyclopentyl-2-(7-methylimidazo[1,2-a]pyridin-8-yl)benzene-1,3-diol]: in the experiment on C57BL/6J mice [1] (30 mg/kg i.p.), the “CC50 +/− SEM” value was determined as 57.3 ± 1.9 mA and the “Change from vehicle (CC50)” value came out at 124%.
On to `CCCc1cc(O)c(-c2c(C)c(C3CC3)cn3ccnc23)c(O)c1` [Compound 23, 2-(6-Cyclopropyl-7-methylimidazo[1,2-a]pyridin-8-yl)-5-propylbenzene-1,3-diol], for which, in the experiment with C57BL/6J mice [1] (30 mg/kg i.p.), the “CC50 +/− SEM” value is reported as under 33.0 mA and the “Change from vehicle (CC50)” value was under 52%.
With `Cc1c(F)cn2ccnc2c1-c1c(O)cc(CCC(F)(F)F)cc1O` [Compound 24, 2-(6-Fluoro-7-methylimidazo[1,2-a]pyridin-8-yl)-5-(3,3,3-trifluoropropyl)benzene-1,3-diol], in the experiment on C57BL/6J mice [1] (25 mg/kg p.o.), the “CC50 +/− SEM” value is 92.9 ± 1.1 mA and the “Change from vehicle (CC50)” value was 272%. Also, in the experiment on C57BL/6J mice [1] (50 mg/kg p.o.), the “CC50 +/− SEM” value is over 131.0 mA and the “Change from vehicle (CC50)” value is over 424%.
Consider picrotoxin, for which the seizure threshold entry in the experiment on C57BL/6J mice [3] and in the experiment on C57BL/6J mice [4] was “a reduction in seizure threshold” each time.
